Laboratory results reported in patent publication US20050112573A1, “Method of detecting toxic substance” (priority 2001, published 2005).

System: yeast genes (level of expressed mRNA)
Experiment: DNA chip analysis of expressed mRNA of yeast genes after 2 h culture with a toxic chemical substance
Assay type: cell-based, Saccharomyces cerevisiae S288C
Method in brief: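 S. cerevisiae S288C in YPD at 25 °C was exposed at log phase for 2 h to a growth-inhibiting, non-lethal concentration of the chemical. Poly(A) mRNA was reverse-transcribed with Cy3- or Cy5-dUTP and hybridized to a whole-genome yeast DNA chip (65 °C, >12 h). Values are fluorescence ratios versus untreated cells.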

sodium dodecylbenzosulfonate [(17)]
3.2: The level of expressed mRNA in the presence of chemical substance/absence: YBR287W (gene YBR287W)
1.5: level of expressed mRNA in the presence of chemical substance/in its absence (gene YAL054C) | level of expressed mRNA in the presence of chemical substance/in its absence (gene YBR035C) | level of expressed mRNA in the presence of chemical substance/in its absence (gene YBR050C) | The level of expressed mRNA in the presence of chemical substance/absence: YDR281C (gene YDR281C) | level of expressed mRNA in the presence of chemical substance/in its absence (gene YDR487C)
0.3: level of expressed mRNA in the presence of chemical substance/in its absence (gene YCL064C)
1.9: level of expressed mRNA in the presence of chemical substance/in its absence (gene YGL001C)
1.6: The level of expressed mRNA in the presence of chemical substance/absence: YAL049C (gene YAL049C) | level of expressed mRNA in the presence of chemical substance/in its absence (gene YBL001C)
1.3: The level of expressed mRNA in the presence of chemical substance/absence: YDL173W (gene YDL173W) | The level of expressed mRNA in the presence of chemical substance/absence: YDR140W (gene YDR140W) | level of expressed mRNA in the presence of chemical substance/in its absence (gene YFR015C) | The level of expressed mRNA in the presence of chemical substance/absence: YGL045W (gene YGL045W)
1.2: The level of expressed mRNA in the presence of chemical substance/absence: YBR063C (gene YBR063C) | The level of expressed mRNA in the presence of chemical substance/absence: YBR066C (gene YBR066C) | The level of expressed mRNA in the presence of chemical substance/absence: YBR162C (gene YBR162C) | The level of expressed mRNA in the presence of chemical substance/absence: YCL056C (gene YCL056C) | level of expressed mRNA in the presence of chemical substance/in its absence (gene YCR048W) | The level of expressed mRNA in the presence of chemical substance/absence: YDL046W (gene YDL046W) | level of expressed mRNA in the presence of chemical substance/in its absence (gene YDR009W) | level of expressed mRNA in the presence of chemical substance/in its absence (gene YDR019C) | The level of expressed mRNA in the presence of chemical substance/absence: YDR109C (gene YDR109C) | The level of expressed mRNA in the presence of chemical substance/absence: YDR271C (gene YDR271C) | The level of expressed mRNA in the presence of chemical substance/absence: YDR366C (gene YDR366C) | The level of expressed mRNA in the presence of chemical substance/absence: YDR425W (gene YDR425W) | The level of expressed mRNA in the presence of chemical substance/absence: YDR504C (gene YDR504C) | level of expressed mRNA in the presence of chemical substance/in its absence (gene YEL020C)
2.6: The level of expressed mRNA in the presence of chemical substance/absence: YCR007C (gene YCR007C)
0.7: level of expressed mRNA in the presence of chemical substance/in its absence (gene YAR071W) | level of expressed mRNA in the presence of chemical substance/in its absence (gene YBR023C) | The level of expressed mRNA in the presence of chemical substance/absence: YBR281C (gene YBR281C) | The level of expressed mRNA in the presence of chemical substance/absence: YDR278C (gene YDR278C) | The level of expressed mRNA in the presence of chemical substance/absence: YDR421W (gene YDR421W)
0.5: The level of expressed mRNA in the presence of chemical substance/absence: YGL088W (gene YGL088W)
1.1: The level of expressed mRNA in the presence of chemical substance/absence: YAL014C (gene YAL014C) | The level of expressed mRNA in the presence of chemical substance/absence: YBR051W (gene YBR051W) | level of expressed mRNA in the presence of chemical substance/in its absence (gene YBR068C) | level of expressed mRNA in the presence of chemical substance/in its absence (gene YCL009C) | The level of expressed mRNA in the presence of chemical substance/absence: YDL233W (gene YDL233W) | The level of expressed mRNA in the presence of chemical substance/absence: YDR090C (gene YDR090C) | The level of expressed mRNA in the presence of chemical substance/absence: YDR221W (gene YDR221W) | level of expressed mRNA in the presence of chemical substance/in its absence (gene YER069W) | The level of expressed mRNA in the presence of chemical substance/absence: YFL042C (gene YFL042C) | The level of expressed mRNA in the presence of chemical substance/absence: YFR026C (gene YFR026C) | The level of expressed mRNA in the presence of chemical substance/absence: YFR056C (gene YFR056C)
1.0: The level of expressed mRNA in the presence of chemical substance/absence: YAL017W (gene YAL017W) | level of expressed mRNA in the presence of chemical substance/in its absence (gene YAL038W) | level of expressed mRNA in the presence of chemical substance/in its absence (gene YBR014C) | The level of expressed mRNA in the presence of chemical substance/absence: YBR129C (gene YBR129C) | The level of expressed mRNA in the presence of chemical substance/absence: YBR255W (gene YBR255W) | level of expressed mRNA in the presence of chemical substance/in its absence (gene YBR299W) | level of expressed mRNA in the presence of chemical substance/in its absence (gene YDL022W) | The level of expressed mRNA in the presence of chemical substance/absence: YDL089W (gene YDL089W) | level of expressed mRNA in the presence of chemical substance/in its absence (gene YDR410C) | The level of expressed mRNA in the presence of chemical substance/absence: YGL041C (gene YGL041C)
0.8: The level of expressed mRNA in the presence of chemical substance/absence: YBL044W (gene YBL044W) | The level of expressed mRNA in the presence of chemical substance/absence: YBL100C (gene YBL100C) | level of expressed mRNA in the presence of chemical substance/in its absence (gene YBR222C) | The level of expressed mRNA in the presence of chemical substance/absence: YCL042W (gene YCL042W) | level of expressed mRNA in the presence of chemical substance/in its absence (gene YDR380W) | The level of expressed mRNA in the presence of chemical substance/absence: YDR485C (gene YDR485C) | The level of expressed mRNA in the presence of chemical substance/absence: YER182W (gene YER182W)
1.4: level of expressed mRNA in the presence of chemical substance/in its absence (gene YAL044C) | The level of expressed mRNA in the presence of chemical substance/absence: YBR012C (gene YBR012C) | The level of expressed mRNA in the presence of chemical substance/absence: YBR013C (gene YBR013C) | level of expressed mRNA in the presence of chemical substance/in its absence (gene YBR111C) | level of expressed mRNA in the presence of chemical substance/in its absence (gene YBR183W) | level of expressed mRNA in the presence of chemical substance/in its absence (gene YCR037C) | level of expressed mRNA in the presence of chemical substance/in its absence (gene YEL011W) | The level of expressed mRNA in the presence of chemical substance/absence: YEL044W (gene YEL044W) | The level of expressed mRNA in the presence of chemical substance/absence: YER092W (gene YER092W)
0.9: level of expressed mRNA in the presence of chemical substance/in its absence (gene YAL012W) | The level of expressed mRNA in the presence of chemical substance/absence: YAL018C (gene YAL018C) | The level of expressed mRNA in the presence of chemical substance/absence: YAR064W (gene YAR064W) | The level of expressed mRNA in the presence of chemical substance/absence: YBR124W (gene YBR124W) | The level of expressed mRNA in the presence of chemical substance/absence: YCL044C (gene YCL044C) | The level of expressed mRNA in the presence of chemical substance/absence: YDL193W (gene YDL193W) | The level of expressed mRNA in the presence of chemical substance/absence: YDR071C (gene YDR071C) | The level of expressed mRNA in the presence of chemical substance/absence: YDR078C (gene YDR078C) | The level of expressed mRNA in the presence of chemical substance/absence: YDR128W (gene YDR128W) | The level of expressed mRNA in the presence of chemical substance/absence: YDR250C (gene YDR250C) | The level of expressed mRNA in the presence of chemical substance/absence: YDR338C (gene YDR338C) | level of expressed mRNA in the presence of chemical substance/in its absence (gene YDR502C) | level of expressed mRNA in the presence of chemical substance/in its absence (gene YGL022W) | The level of expressed mRNA in the presence of chemical substance/absence: YGL057C (gene YGL057C)
0.6: level of expressed mRNA in the presence of chemical substance/in its absence (gene YBR029C) | The level of expressed mRNA in the presence of chemical substance/absence: YDR133C (gene YDR133C) | The level of expressed mRNA in the presence of chemical substance/absence: YDR316W (gene YDR316W) | level of expressed mRNA in the presence of chemical substance/in its absence (gene YGL039W)
1.7: The level of expressed mRNA in the presence of chemical substance/absence: YAR047C (gene YAR047C) | level of expressed mRNA in the presence of chemical substance/in its absence (gene YBR145W) | level of expressed mRNA in the presence of chemical substance/in its absence (gene YCR098C) | level of expressed mRNA in the presence of chemical substance/in its absence (gene YER026C)
